# Results taken from patent US20100029604A1, “ANTIBACTERIAL COMBINATION AND ITS USE” (priority 2007, published 2010).
# Read-outs that look alike come from different tables or passages of the source.
# Tests used:
# Salmonella spp. DHA-1 = test: MIC, characterised β-lactamase producing strain (Example 5, Tables 5-7); type: cell-based
# Procedure: (§1) The MIC experiments were performed in duplicate in 96-well microtiter plates using CAMHB. Serial twofold dilutions of each antibiotic either alone or in combination with constant concentration ratio of a β-lactamase inhibitor (2:1) were prepared in CAMHB. The bacterial suspension with final inoculum 10^5 CFU/mL was transferred to the test medium containing the antibacterial substances. In each well of a 96-well microtiter plate was combined 50 μL of bacterial inoculum, 50 μL of antibiotic dilutions (or media for determination of the MIC of the antibiotic in the absence of test compound). Each plate included 4 wells with no bacterial inoculum (negative control) and 4 wells with no test compound and no antibiotic (positive control). The plates were incubated at 35° C. for 24 h. Purity check and colony counts on each inoculum suspension was performed to ensure that the final inoculum concentration routinely obtained closely approximates 5×10^5 CFU/mL. In addition the assay is routinely monitored by testing standard antibiotics and ensuring that MIC values are within the recommended ranges for the respective strains.
# (§2) This test permits comparisons to be made between bacterial growth in the presence of antibiotic alone and bacterial growth in the presence of both an antibiotic and a novel (test) compound.
# [1] = test system: Klebsiella pneumoniae TEM-30; test: as above; type: cell-based
# Procedure: as §1, §2
# Escherichia coli TEM-34 = test: as above; type: cell-based
# Procedure: as §1, §2
# [2] = test system: Klebsiella pneumoniae TEM-1, SHV-5; test: as above; type: cell-based
# Procedure: as §1, §2
# [3] = test system: Aeromonas hydrophila AER-1; test: as above; type: cell-based
# Procedure: as §1, §2
# [4] = test system: Pseudomonas aeruginosa NPS-1; test: as above; type: cell-based
# Procedure: as §1, §2
# Escherichia coli OXA-4 = test: as above; type: cell-based
# Procedure: as §1, §2
# Escherichia coli TEM-32 = test: as above; type: cell-based
# Procedure: as §1, §2
# E. coli SHV-5 = test: Synergy MIC, inhibitor at 4 μg/mL (Example 4); type: cell-based; settings: SHV-5, class A, inhibitor constant 4 μg/mL
# Escherichia coli TEM-9 = test: MIC, characterised β-lactamase producing strain (Example 5, Tables 5-7); type: cell-based
# Procedure: as §1, with “Serial twofold dilutions of each antibiotic either alone or in combination with constant concentration ratio of a β-lactamase inhibitor (2:1) were prepared in CAMHB.” left out
# as §2
# [5] = test system: Klebsiella pneumoniae ATCC 700603; test: MIC broth microdilution (Example 2); settings: Klebsiella pneumoniae ATCC 700603 producing SHV-18
# [6] = test system: Pseudomonas aeruginosa OXA-6; test: MIC, characterised β-lactamase producing strain (Example 5, Tables 5-7); type: cell-based
# Procedure: as §1, with “Serial twofold dilutions of each antibiotic either alone or in combination with constant concentration ratio of a β-lactamase inhibitor (2:1) were prepared in CAMHB.” left out
# as §2
# Escherichia coli CMY-2 = test: as above; type: cell-based
# Procedure: as §1, with “Serial twofold dilutions of each antibiotic either alone or in combination with constant concentration ratio of a β-lactamase inhibitor (2:1) were prepared in CAMHB.” left out
# as §2
# Escherichia coli OXA-1 = test: as above; type: cell-based
# Procedure: as §1, with “Serial twofold dilutions of each antibiotic either alone or in combination with constant concentration ratio of a β-lactamase inhibitor (2:1) were prepared in CAMHB.” left out
# as §2
# Escherichia coli CMY-7 = test: as above; type: cell-based
# Procedure: as §1, with “Serial twofold dilutions of each antibiotic either alone or in combination with constant concentration ratio of a β-lactamase inhibitor (2:1) were prepared in CAMHB.” left out
# as §2
# [7] = test system: Klebsiella oxytoca ATCC 51983; test: MIC broth microdilution (Example 2); settings: ATCC51983
# E. coli TEM-1 = type: cell-based; settings: inhibitor constant 4 μg/mL
# Procedure: Stock solutions of the test compounds and control antibiotics were prepared in distilled water according to the NCCLS guidelines [Methods for dilution antimicrobial tests for bacteria that grow aerobically. NCCLS document M7-A5; 2000; vol. 19. National Committee for Clinical Laboratory Standards, Villanova, Pa.]. All drug weights were corrected for salt forms and refer to the pure drug substance.
# All tested strains and Clinical isolates were either purchased from the American Type Culture Collection (ATCC), or from the in-house company culture collection.
# Stock cultures were prepared from broth cultures grown at 35° C. for 18-22 h without agitation and subsequent addition of 5% DMSO (v/v, final concentration) as cryoprotectant and stored frozen in liquid nitrogen. Mueller-Hinton II broth (MHBII) (BBL Cockeysville, Md.) was used for the testing procedure.
# The in vitro activities of the antibiotics were determined by the broth microdilution method and agar dilution technique as recommended by CLSI guidelines. The MIC experiments were performed in duplicate in 96-well microtiter plates using MHB. Serial twofold dilutions of each antibiotic either alone or in combination with a constant amount (4 μg/mL) of a β-lactamase inhibitor were prepared in MHBII broth. A sterile pipette tip was used to mix the contents of each well (one tip was used going from the low to the high concentration in the same column). The bacterial suspension with final inoculum 10^5 CFU/mL was transferred to the test medium containing the antibacterial substances by a multipoint inoculator (Dynatech, Chantilly, Va., USA). The plates were then incubated at 35° C. for 24 h.
# Representative compound of Formula (I) was evaluated against the serine-based Class A β-lactamases including TEM-type, SHV-type extended spectrum β-lactamases (ESBL) and various non-ESBL enzymes of enterobacteriaceae as well as BRO-type enzymes of Moraxella catarrhalis and penicillinases of Staphylococcus aureus.
# [8] = Table 6, LK-157 at constant 4 μg/mL in combination
# [9] = Table 7, combination at constant concentration ratio (2:1)
smiles,measurement,setting,value
CO/N=C(\C(=O)N[C@@H]1C(=O)N2C(C(=O)[O-])=C(C[N+]3(C)CCCC3)CS[C@H]12)c1csc(N)n1 [cefepime],MIC,"Salmonella spp. DHA-1; Salmonella spp. DHA-1, functional group 1, LK-157 in combination constant 4 μg/mL",1 µg/mL
same,MIC,"[1]; Klebsiella pneumoniae TEM-30, functional group 2br, LK-157 in combination constant 4 μg/mL",0.125 µg/mL
same,MIC,"Escherichia coli TEM-34; Escherichia coli TEM-34, functional group 2br, LK-157 in combination constant 4 μg/mL",0.063 µg/mL
same,MIC,"[2]; Klebsiella pneumoniae TEM-1, SHV-5, functional group 2b, 2e, LK-157 in combination constant 4 μg/mL",16 µg/mL
same,MIC,"[3]; Aeromonas hydrophila AER-1, functional group 2c, LK-157 in combination constant 4 μg/mL",0.5 µg/mL
same,MIC,"[4]; Pseudomonas aeruginosa NPS-1, functional group 2a, LK-157 in combination constant 4 μg/mL",8 µg/mL
same,MIC,"Escherichia coli OXA-4; Escherichia coli OXA-4, functional group 2d, LK-157 in combination constant 4 μg/mL",0.5 µg/mL
same,MIC,"Escherichia coli TEM-32; Escherichia coli TEM-32, functional group 2br, LK-157 in combination constant 4 μg/mL",0.125 µg/mL
same,MIC,E. coli SHV-5,25.6 µg/mL
same,MIC,"Escherichia coli TEM-9; Escherichia coli TEM-9, functional group 2be, LK-157 in combination constant 4 μg/mL",128 µg/mL
CO/N=C(\C(=O)N[C@@H]1C(=O)N2C(C(=O)O)=C(COC(C)=O)CS[C@H]12)c1csc(N)n1 [cefotaxime],MIC,"Salmonella spp. DHA-1; Table 6, Salmonella spp. DHA-1, LK-157 at constant 4 μg/mL in combination",32 µg/mL
same,MIC,"[1]; Table 6, Klebsiella pneumoniae TEM-30, LK-157 at constant 4 μg/mL in combination",0.031 µg/mL
same,MIC,"Escherichia coli TEM-34; Table 6, Escherichia coli TEM-34, LK-157 at constant 4 μg/mL in combination",0.031 µg/mL
same,MIC,"[2]; Table 6, Klebsiella pneumoniae TEM-1, SHV-5, LK-157 at constant 4 μg/mL in combination",32 µg/mL
same,MIC,"[4]; Table 6, Pseudomonas aeruginosa NPS-1, LK-157 at constant 4 μg/mL in combination",16 µg/mL
same,MIC,E. coli SHV-5,> 25.6 µg/mL
same,susceptibility of the strain to the antibiotic,[5],susceptible
same,MIC,[6]; [8],16 µg/mL
same,MIC,Escherichia coli CMY-2; [8],32 µg/mL
same,MIC,Escherichia coli OXA-1; [8],0.5 µg/mL
same,MIC,Escherichia coli CMY-7; [8],32 µg/mL
same,MIC,[7],2 to 8 µg/mL
CC(C)(O/N=C(\C(=O)N[C@@H]1C(=O)N2C(C(=O)[O-])=C(C[n+]3ccccc3)CS[C@H]12)c1csc(N)n1)C(=O)O [ceftazidime],MIC,"[3]; Table 7, Aeromonas hydrophila AER-1, combination at constant concentration ratio (2:1)",0.25 µg/mL
same,MIC,"Escherichia coli OXA-4; Table 7, Escherichia coli OXA-4, combination at constant concentration ratio (2:1)",0.5 µg/mL
same,MIC,"Escherichia coli TEM-32; Table 7, Escherichia coli TEM-32, combination at constant concentration ratio (2:1)",0.25 µg/mL
same,susceptibility of the strain to the antibiotic,[5],resistant
same,MIC,[6]; [9],2 µg/mL
same,MIC,Escherichia coli CMY-2; [9],≧128 μg/mL
same,MIC,Escherichia coli OXA-1; [9],0.25 µg/mL
same,MIC,"Escherichia coli TEM-9; Table 7, Escherichia coli TEM-9, combination at constant concentration ratio (2:1)",≧128 μg/mL
same,MIC,Escherichia coli CMY-7; [9],≧128 μg/mL
same,MIC,[7],32 to 64 µg/mL
same,MIC,"E. coli TEM-1; β-lactamase TEM-1, first listed (Table 3 r14)",0.2 µg/mL
same,MIC,"E. coli TEM-1; β-lactamase TEM-1, second listed (Table 3 r15)",3.2 µg/mL
